Legend:
[1] = xn = mol fraction of the nth substance listed; details: 298.15 K, 101 kPa, Liquid
[2] = excess molar enthalpy (molar enthalpy of mixing); xn = mol fraction of the nth substance listed; details: 298.15 K, 101 kPa, Liquid

CCCCOC=O [butyl methanoate] + ClCCCl
Details | excess molar enthalpy [kJ/mol] | mass density [kg/m3]
[1], x1 = 0.0423 | – | 1223.68
[1], x1 = 0.0859 | – | 1202
[1], x1 = 0.1303 | – | 1180.75
[1], x1 = 0.1772 | – | 1159.35
[1], x1 = 0.2251 | – | 1138.25
[1], x1 = 0.2748 | – | 1117.45
[1], x1 = 0.3271 | – | 1096.31
[1], x1 = 0.382 | – | 1075.28
[1], x1 = 0.4376 | – | 1054.83
[1], x1 = 0.497 | – | 1034.05
[1], x1 = 0.5604 | – | 1012.84
[1], x1 = 0.6255 | – | 992.02
[1], x1 = 0.6925 | – | 971.62
[1], x1 = 0.7638 | – | 950.97
[1], x1 = 0.8379 | – | 930.45
[1], x1 = 0.9173 | – | 909.53
[2], x1 = 0.0384 | 0.0072 | –
[2], x1 = 0.0884 | 0.0032 | –
[2], x1 = 0.1406 | -0.0158 | –
[2], x1 = 0.2002 | -0.0433 | –
[2], x1 = 0.254 | -0.0755 | –
[2], x1 = 0.3052 | -0.109 | –
[2], x1 = 0.35 | -0.138 | –
[2], x1 = 0.3874 | -0.162 | –
[2], x1 = 0.4396 | -0.183 | –
[2], x1 = 0.4751 | -0.196 | –
[2], x1 = 0.5277 | -0.205 | –
[2], x1 = 0.5938 | -0.19 | –
[2], x1 = 0.6645 | -0.181 | –
[2], x1 = 0.741 | -0.16 | –
[2], x1 = 0.8303 | -0.121 | –
[2], x1 = 0.9138 | -0.0737 | –

CCCCOC(=O)CCC [butyl butanoate] + ClCCCCCl
[1]
Details | mass density [kg/m3]
x1 = 0.0415 | 1117.54
x1 = 0.0836 | 1101.67
x1 = 0.1727 | 1070.09
x1 = 0.2202 | 1054.28
x1 = 0.322 | 1022.51
x1 = 0.3752 | 1006.99
x1 = 0.4319 | 991.17
x1 = 0.4904 | 975.58
x1 = 0.554 | 959.43
x1 = 0.6186 | 943.82
x1 = 0.7579 | 912.57
x1 = 0.8338 | 896.78
x1 = 0.9131 | 881.09

ClCCCCCCCl [1,6-dichlorohexane] + CCCCOC(C)=O
[1]
Details | mass density [kg/m3]
x2 = 0.0673 | 1052.28
x2 = 0.1308 | 1041.35
x2 = 0.1929 | 1030.53
x2 = 0.2552 | 1019.5
x2 = 0.3164 | 1008.57
x2 = 0.3768 | 997.63
x2 = 0.4368 | 986.64
x2 = 0.4966 | 975.54
x2 = 0.554 | 964.77
x2 = 0.6113 | 953.89
x2 = 0.6692 | 942.75
x2 = 0.7252 | 931.87
x2 = 0.7823 | 920.59
x2 = 0.8912 | 898.78
x2 = 0.9466 | 887.47

CCCCOC(=O)CCC [butyl butanoate] + ClCCCCCCCl
[1]
Details | mass density [kg/m3]
x1 = 0.0545 | 1051.6
x1 = 0.1071 | 1040.01
x1 = 0.16 | 1028.52
x1 = 0.2136 | 1017
x1 = 0.2692 | 1005.25
x1 = 0.3239 | 993.9
x1 = 0.3815 | 982.05
x1 = 0.439 | 970.43
x1 = 0.5565 | 947.09
x1 = 0.6826 | 922.79
x1 = 0.7398 | 911.99
x1 = 0.803 | 900.24
x1 = 0.8726 | 887.54
x1 = 0.9323 | 876.78

ClCCCCCl [1,4-dichlorobutane] + CCCCOC=O
Details | excess molar enthalpy [kJ/mol] | mass density [kg/m3]
[1], x2 = 0.0582 | – | 1119.16
[1], x2 = 0.1167 | – | 1104.56
[1], x2 = 0.1724 | – | 1090.7
[1], x2 = 0.2316 | – | 1075.99
[1], x2 = 0.286 | – | 1062.54
[1], x2 = 0.345 | – | 1047.97
[1], x2 = 0.4055 | – | 1033.06
[1], x2 = 0.522 | – | 1004.48
[1], x2 = 0.5808 | – | 990.11
[1], x2 = 0.6408 | – | 975.5
[1], x2 = 0.6992 | – | 961.32
[1], x2 = 0.76 | – | 946.59
[1], x2 = 0.8183 | – | 932.5
[1], x2 = 0.8774 | – | 918.24
[1], x2 = 0.9363 | – | 904.07
[2], x2 = 0.049 | 0.0288 | –
[2], x2 = 0.1112 | 0.0469 | –
[2], x2 = 0.1816 | 0.0572 | –
[2], x2 = 0.2472 | 0.0633 | –
[2], x2 = 0.3099 | 0.0576 | –
[2], x2 = 0.3701 | 0.0463 | –
[2], x2 = 0.4257 | 0.0328 | –
[2], x2 = 0.4725 | 0.0153 | –
[2], x2 = 0.5121 | 0.0003 | –
[2], x2 = 0.5471 | -0.0099 | –
[2], x2 = 0.5819 | -0.0217 | –
[2], x2 = 0.6245 | -0.0346 | –
[2], x2 = 0.6718 | -0.0435 | –
[2], x2 = 0.7351 | -0.0513 | –
[2], x2 = 0.8039 | -0.045 | –
[2], x2 = 0.8728 | -0.0337 | –
[2], x2 = 0.9412 | -0.0176 | –

ClCCCl [1,2-dichloroethane] + CCCCOC(C)=O
[1]
Details | mass density [kg/m3]
x2 = 0.0359 | 1223.55
x2 = 0.0733 | 1201.71
x2 = 0.1139 | 1178.94
x2 = 0.1559 | 1156.86
x2 = 0.1988 | 1135.53
x2 = 0.2456 | 1113.51
x2 = 0.2953 | 1091.52
x2 = 0.3469 | 1070.08
x2 = 0.4021 | 1048.45
x2 = 0.4599 | 1027.18
x2 = 0.5233 | 1005.31
x2 = 0.5883 | 984.3
x2 = 0.6585 | 963
x2 = 0.7344 | 941.52
x2 = 0.8173 | 919.59
x2 = 0.9013 | 898.96

ClCCCCCl [1,4-dichlorobutane] + CCCCOC(C)=O
[1]
Details | mass density [kg/m3]
x2 = 0.0529 | 1117.81
x2 = 0.1035 | 1102.8
x2 = 0.1569 | 1087.25
x2 = 0.2092 | 1072.35
x2 = 0.2638 | 1057.04
x2 = 0.3207 | 1041.46
x2 = 0.3754 | 1026.74
x2 = 0.4326 | 1011.67
x2 = 0.4906 | 996.66
x2 = 0.5505 | 981.49
x2 = 0.6125 | 966.12
x2 = 0.6735 | 951.29
x2 = 0.7365 | 936.28
x2 = 0.8011 | 921.17
x2 = 0.8692 | 905.6
x2 = 0.9352 | 890.8

ClCCCCl [1,3-dichloropropane] + CCCCOC(C)=O
[1]
Details | mass density [kg/m3]
x2 = 0.046 | 1159.83
x2 = 0.0904 | 1142.04
x2 = 0.1361 | 1124.29
x2 = 0.1839 | 1106.48
x2 = 0.2336 | 1088.53
x2 = 0.2841 | 1070.96
x2 = 0.3935 | 1035.06
x2 = 0.5106 | 999.49
x2 = 0.6371 | 964.06
x2 = 0.7043 | 946.37
x2 = 0.7737 | 928.82
x2 = 0.8467 | 911.1
x2 = 0.923 | 893.45

ClCCCCl [1,3-dichloropropane] + CCCCOC(=O)CC
[1]
Details | mass density [kg/m3]
x2 = 0.0407 | 1159.66
x2 = 0.1229 | 1123.34
x2 = 0.2119 | 1087.43
x2 = 0.2612 | 1068.85
x2 = 0.3653 | 1032.69
x2 = 0.4229 | 1014.17
x2 = 0.4801 | 996.73
x2 = 0.5422 | 978.78
x2 = 0.6802 | 942.1
x2 = 0.7534 | 924.3
x2 = 0.9139 | 888.6

— the NIST ThermoML archive (doi:10.1016/j.jct.2005.11.003)
